From US6696433B2, “Use of sex steroids function modulators to treat wounds and fibrotic disorders” (Renovo Limited, priority 1996, dated 2004)

Assays:
[1] = test system: elastase; assay: Wound elastase activity: fibronectin zymography, immunoblotting and elastase substrate degradation; format: in vivo, human; settings: day 7 wounds compared to placebo
Procedure: Proteases responsible for fibronectin degradation were identified by zymography using fibronectin-containing acrylamide gels (12% acrylamide and 0.33 mg/ml fibronectin, Central Blood Products Ltd). Tissue samples were lyophilized and homogenized using a ground glass homogenizer containing 0.5 ml buffer (100 mM Tris/HCl, 6M Urea, 15 mM CaCl2, 0.25% Triton-X100, pH 7.4). After centrifugation at 11,000 rpm for 10 min at 4° C. samples (20 μg dry wt) were incubated for 30 min at 37° C. with 2× Laemmli sample buffer and subjected to electrophoresis under non-reducing conditions (Laemmli, 1970). After electrophoresis, the gels were washed twice with 2.5% Triton-X100 for 1 hr to remove SDS. The gels were briefly washed with double distilled water and incubated for 18 h at 37° C. in developing buffer containing 50 mM Tris/HCl, 150 mM NaCl and 5 mM CaCl2, pH 7.4. At the end of incubation the gels were stained with 0.5% Coomassie brilliant blue and destained. […]
Tissue samples (20 μg dry wt) and human neutrophil elastase (0.01-0.3 μg/ml) were incubated for up to 1 h at 37° C. in 200 μl of 0.1M Hepes buffer, pH 7.5, containing 0.5M NaCl, 10% dimethylsulfoxide and 0.1 mM elastase substrate (methoxysuccinyl-ala-ala-pro-val-p-nitroanilide; Calibiochem Co;). Substrate degradation was determined by measuring OD410 (Dynatech MR5000). […] Results were expressed as ng/ml elastase activity/20 μg dry wt.

[2] = test system: Human dermal fibroblasts; assay: Fibroblast proliferation, [3H] thymidine incorporation; format: cell-based; settings: for proliferation of fibroblasts: doses 1 pM to 1 mM, 24 hrs, fibroblasts from young and aged subjects, compared to cyclodextrin controls
Procedure: (§1) Human dermal fibroblasts were explanted from the 4 mm punch biopsy specimens of normal skin. Fibroblasts used in the study were cultured at 37° C. in 95% air; 5% CO2 at 100% relative humidity, in phenol red-free DMEM (Gibco), 100 U/ml penicillin, […], 1 mM sodium pyruvate, 2 mM L-glutamine, non-essential amino acids and charcoal-stripped 10% FCS (Gibco, UK) (to remove endogenous steroids).
(§2) Cultured cells at passage 3-5 were seeded overnight in 24-well plates at a density of 2×10^5 cells per well in serum free media. The following morning oestrogen or progesterone (made soluble by the incorporation of the carrier cyclodextrin; Sigma, Poole), ranging from 1 pM to 1 mM doses, were added to the medium for 24 hrs. All samples were assessed in triplicate. The media was removed after the 24 hr incubation. 1 mg/ml of aprotinin, leupeptin and pepstatin A was then added to the media which was used immediately in a TGF-β assay (see below). Controls included cyclodextrin at the appropriate concentration, and serum-free medium alone.
The cells were then incubated with [^3H] thymidine in serum-free medium (0.5 μCi/well) to assess the effect of oestrogen or progesterone on fibroblast proliferation. After 24 hrs, the thymidine solution was aspirated and replaced by 10% TCA for 4 hrs at 4° C. The TCA was replaced by 250 μls 1M NaOH solution for 18 hrs. Two 100 μl aliquots from each well were measured for radioactivity in a scintillation counter. In parallel experiments, the effect of hormones/controls on protein synthesis was investigated by the addition of 20 μg/ml cycloheximde (to inhibit protein translation) for 15 mins prior to the 24 hr incubation period.

[3] = test system: TGF-β1 mRNA; assay: Dermal fibroblast TGF-β1 mRNA levels by quantitative RT-PCR; format: cell-based, human
Procedure: as §1, §2
Quantitative RT-PCR was used to determine the steady-state levels of TGF-β1 mRNA in the acute wound and in 10^5 cells from the fibroblast in vitro studies (2.1.5) Cellular RNA was isolated from specimens using the method of Chomcynski and Sacchi (Anal, Biochem, 162 p156-159 (1987)). Purity of extraction was assessed using the A260/280 ratio spectrophotometrically, which in all cases was above 1.75. […] Quantitative RT-PCR was performed as described by Tarnuzzer et al. (Biotechniques 20 p670-674 (1996)) Briefly, the reverse transcriptase reaction was carried out using 8 decreasing dilutions of template with 1 μg of authentic cellular RNA. β-actin was used as a positive control. PCR reactions were carried out on the reverse transcription reaction. Electrophoresis was then carried out on a 2% agarose gel containing […] ethidium bromide at 100 v for 1 hr using an Electro 4 tank (Hybaid, Teddington, UK) and photographed using a dual intensity transilluminator (Genetic Research instrumentation, Dunmow (UK) with a Polaroid MP 4+ camera and 665 Polaroid Black and White film, Photographic images were captured using a PC Image Software system (Foster Finley, Newcastle, UK) on a 486 DX2 Dan computer (Dan, UK) and a CCD camera (Swift, UK). The band intensities were determined by image analysis using a Macintosh computer and NIH software programme. Band intensity values were normalised based on the molecular weights of the products. The log of the ratio of band intensities within each lane was plotted against the log of the copy number of template added per reaction. Quantities of target messages were determined where the ratio of template and target band intensities were equal to 1. Copy numbers were expressed per total RNA (for wound tissue) or expressed per cell (for in vitro studies). The latter were calculated by assuming 26 pg RNA/cell.

[4] = test system: full thickness incisional wounds; assay: Incisional wound healing in OVX and sham rats, histology at day 7 post-wounding; format: in vivo, Female Sprague Dawley rats; settings: day 7 wound from an intact female rat treated with oestrogen
[5] = OLD person (2A or 2B) fibroblasts, mM dose
[6] = OLD person (2A or 2B) fibroblasts, nM dose
[7] = OLD person (2A or 2B) fibroblasts, pM dose
[8] = OLD person (2A or 2B) fibroblasts, μM dose
[9] = YOUNG person (2C) fibroblasts, mM dose
[10] = YOUNG person (2C) fibroblasts, nM dose
[11] = YOUNG person (2C) fibroblasts, pM dose
[12] = YOUNG person (2C) fibroblasts, μM dose

Compound | elastase activity (synthetic elastase substrate degradation assay) [1] | proliferation of fibroblasts [2] | TGF-beta mRNA LEVELS [3, 5] | TGF-beta mRNA LEVELS [3, 6] | TGF-beta mRNA LEVELS [3, 7] | TGF-beta mRNA LEVELS [3, 8] | TGF-beta mRNA LEVELS [3, 9] | TGF-beta mRNA LEVELS [3, 10] | TGF-beta mRNA LEVELS [3, 11] | TGF-beta mRNA LEVELS [3, 12] | TGF-β1 mRNA levels, control versus treated fibroblasts ([3]; varying concentrations of oestrogen, fibroblasts from all females regardless of age) | wound healing in stained sections (FIG. 1 c) [4] | degree of inhibition of fibroblast proliferation relative to oestrogen ([2]; at 1 mM, p<0.05)
C[C@]12CC[C@@H]3c4ccc(O)cc4CC[C@H]3[C@@H]1CC[C@@H]2O [Oestrogen] | significantly reduced | inhibited | 990 ± 325 copies/cell | 1100 ± 370 copies/cell | 1155 ± 215 copies/cell | 1100 ± 235 copies/cell | 1250 ± 188 copies/cell | 1300 ± 272 copies/cell | 1190 ± 300 copies/cell | 1180 ± 130 copies/cell | No significant differences | improved wound healing | 
CC(=O)[C@H]1CC[C@H]2[C@@H]3CCC4=CC(=O)CC[C@]4(C)[C@H]3CC[C@]12C [Progesterone, progesterone] |  | inhibited | 1300 ± 430 copies/cell | 1000 ± 275 copies/cell | 950 ± 210 copies/cell | 1110 ± 290 copies/cell | 1100 ± 310 copies/cell | 1145 ± 206 copies/cell | 1130 ± 254 copies/cell | 1090 ± 280 copies/cell |  |  | significantly greater degree than oestrogen
